Test results: paper PMC7375803, “TBR-760, a Dopamine-Somatostatin Compound, Arrests Growth of Aggressive Nonfunctioning Pituitary Adenomas in Mice” (Endocrinology, 2020)
Values joined by “and” are separate entries in the source; they are usually repeats but may differ in a detail not shown here. Equal entries are not always repeated. Where two headings read alike, the source gives them in different places. Values belong to the compound of their own block, whether it stands above or below them.

Legend:
[1] = test system: NFPAs in heterozygous POMC KO mice; experiment: Study 2: TBR-760 vs individual DA and SST agonists on pituitary tumor growth; assay type: in vivo, mouse
Text: (§1) Wild-type mice (3 male, 3 female) at age 6 months were scanned by MRI to determine average normal pituitary size. Heterozygous POMC KO mice were screened using MRI starting at average age 6.5 months (range, 5.5-9.5 months). These screening scans served to select animals for the study once reaching the baseline tumor volume of 10 mm^3 and to ensure reasonably homogenous groups. Most animals developed tumors within an average of 1.5 months after their first scan and at that point were randomly assigned to experimental groups. Two studies were conducted, the first comparing several doses of TBR-760 vs vehicle, and a second study comparing a fully effective dose of TBR-760 vs the molar equivalent and the 10× molar equivalent (based on the dose of TBR-760) of a pure SST agonist (BIM-23023), a pure DA agonist (BIM-53097), and the combination of the two. The concentration of the DA agonist was doubled to reflect the 2:1 ratio of DA:SST moieties present in TBR-760.
(§2) All groups were composed of 3 males and 3 females, with the exception of the vehicle- and TBR-760-treated groups (n = 8, 4 males/4 females) of the second study, which were maintained for survival analysis as described later. Once entered into the study, all mice received MRI scans for baseline, followed by scans at 2 weeks, 1 month, and 2 months after the baseline scan. Once tumor volume reached 10 mm^3 in the heterozygous POMC KO mice, the mice were treated by daily subcutaneous injection, with each injection given at the same approximate time of day. The mice were euthanized 8 weeks after start of treatment (ie, after the last scan), and pituitary tissue was collected, weighed, and flash-frozen, with the exception of the TBR-760 and vehicle-treated groups in the second study, which were maintained for survival analysis.
(§3) All studies were conducted on a Bruker 7T/210 mm Biospec system (Bruker) at the Duke Center for In Vivo Microscopy. The initial screening scans, conducted at age 6 months in wild-type mice, and average age 6.5 months (range, 5.5-9.5 months) in heterozygous POMC KO mice, were fast scans with scan times of 4 minutes (rapid acquisition with refocused echoes [RARE], repetition time [TR] = 1 second, echo time [TE] = 50 ms; 100 μm × 100 μm × 0.4 mm). Images were analyzed in ImageJ ([36]). Treatment monitoring MRI scans were carried out at 2 weeks, 1 month, and 2 months after start of treatment. For all monitoring scans, parameters were 40-minute scan time (RARE; TR = 5 seconds, TE = 50 ms; 100 μm × 100 μm × 0.3 mm). All scans included complete sectional scans of the pituitary, which were used to calculate tumor volume. MR images were preprocessed using bias field correction to account for the sensitivity profile of the receive coil, thus enhancing the tumor contrast. A trained analyst then manually segmented the tumor on each slice of the MRI. Volume of the tumor was then calculated by multiplying the area of the segmentation by the slice thickness for each slice of the image.
To compare the ability of TBR-760 to arrest aggressive pituitary tumor growth in the POMC KO mouse model vs its individual SST or DA components, either alone or in combination, heterozygous POMC KO mice were again randomly assigned to treatment groups when they presented with tumors approximately 10 mm^3 in size as determined by MRI. […]

[2] = Subcutaneous pharmacokinetics, plasma by HPLC-MS/MS; assay type: in vivo; settings: mouse, 4 mg/kg sc, POMC KO mice, n = 4
Description: To study and compare the pharmacokinetic behavior of TBR-760, the DA analogue BIM-53097 and the SST analogue BIM-23023 solutions with appropriate concentrations were prepared as described earlier and mice were injected subcutaneously at time 0 with a dose of 4 mg/kg. Blood samples were collected at 15 and 30 minutes, and 1, 2, 4, 6, 8 and 24 hours after injection, and processed to obtain plasma. The determination of TBR-760, BIM-23023, or BIM-53097 was based on 100 μL plasma volume and was carried out by high-pressure liquid chromatography tandem mass spectrometry (HPLC-MS/MS) after protein precipitation with acetonitrile and subsequent solid-phase extraction. HPLC-MS/MS was performed on an AB SCIEX API 4000 LC-MS/MS with electrospray ionization operated in multiple-reaction monitoring mode for the analysis (Waters Corporation). Pharmacokinetic parameters were calculated by noncompartmental analyses using WinNonLin (version 5.2).

[3] = target: T1, human somatostatin type 2 receptor (SSTR2) (Homo sapiens, UniProt P30874); settings: read-out: SSTR2 agonist activity cAMP, EC50; cited from earlier work
T1 sequence (P30874 whole entry): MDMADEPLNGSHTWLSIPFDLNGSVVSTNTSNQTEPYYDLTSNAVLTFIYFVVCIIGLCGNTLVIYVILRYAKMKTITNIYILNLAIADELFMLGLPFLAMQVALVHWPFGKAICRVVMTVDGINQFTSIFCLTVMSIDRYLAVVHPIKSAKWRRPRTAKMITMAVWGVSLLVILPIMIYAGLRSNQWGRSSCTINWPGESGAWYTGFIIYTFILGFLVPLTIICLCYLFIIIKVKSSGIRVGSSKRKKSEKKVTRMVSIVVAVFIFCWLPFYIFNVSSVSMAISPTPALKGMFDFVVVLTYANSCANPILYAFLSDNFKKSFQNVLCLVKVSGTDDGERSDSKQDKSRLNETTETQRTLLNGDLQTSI

[4] = target: SSTR1; design: method as in earlier work; settings: read-out: binding affinity for SSTR1; cited from earlier work
[5] = target: SSTR4; design: method as in earlier work; settings: read-out: binding affinity for SSTR4; cited from earlier work
[6] = target: T2, human dopamine type 2 receptor (D2R) (Homo sapiens, UniProt P14416); experiment: D2R receptor binding affinity; settings: internal Tiburio data
T2 sequence (P14416 whole entry): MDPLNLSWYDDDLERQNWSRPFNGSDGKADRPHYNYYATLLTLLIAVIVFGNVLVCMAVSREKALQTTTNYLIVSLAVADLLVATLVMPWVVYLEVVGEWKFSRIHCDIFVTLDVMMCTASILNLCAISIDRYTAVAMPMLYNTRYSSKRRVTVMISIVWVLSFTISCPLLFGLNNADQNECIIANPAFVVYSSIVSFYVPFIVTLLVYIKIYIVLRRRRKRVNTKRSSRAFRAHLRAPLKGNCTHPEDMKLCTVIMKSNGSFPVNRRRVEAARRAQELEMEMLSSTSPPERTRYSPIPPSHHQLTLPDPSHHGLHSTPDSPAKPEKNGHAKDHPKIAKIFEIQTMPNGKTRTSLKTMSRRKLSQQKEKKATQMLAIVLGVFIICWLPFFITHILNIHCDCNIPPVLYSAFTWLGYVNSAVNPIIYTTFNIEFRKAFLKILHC
Text: Table 1. Receptor binding affinity and agonist activity at human dopamine type 2 and somatostatin type 2 | column: D2R binding, Ki nM

[7] = target: T2, human dopamine type 2 receptor (D2R); experiment: D2R agonist activity, cAMP; assay type: cell-based; settings: internal Tiburio data
Description: Table 1. Receptor binding affinity and agonist activity at human dopamine type 2 and somatostatin type 2 | column: D2R agonist activity cAMP, EC50 nM

[8] = test system: residual NFPAs; design: method as in PMID 30540568; settings: after 24 months, cited from earlier work
[9] = target: T1, human somatostatin type 2 receptor (SSTR2); experiment: SSTR2 receptor binding affinity; settings: internal Tiburio data
Text: Table 1. Receptor binding affinity and agonist activity at human dopamine type 2 and somatostatin type 2 | column: SSTR2 binding, Ki nM

[10] = target: T1, human somatostatin type 2 receptor (SSTR2); experiment: SSTR2 agonist activity, cAMP; assay type: cell-based; settings: internal Tiburio data
Description: Table 1. Receptor binding affinity and agonist activity at human dopamine type 2 and somatostatin type 2 | column: SSTR2 agonist activity cAMP, EC50 nM

[11] = test system: NFPAs in heterozygous POMC KO mice; experiment: Study 1: TBR-760 dose comparison on pituitary tumor growth (MRI volume, tumor weight); assay type: in vivo, mouse; settings: mean ± SEM; for tumor volume after 8 weeks of treatment: vehicle 72.5 ± 5.9; for tumor weight after 8 weeks of treatment: vehicle 36 ± 7.4
Text: as §1, §2, §3
At that time, treatment was initiated with daily subcutaneous injections of either vehicle or 0.125, 1.25, or 12.5 mg/kg of TBR-760 for 8 weeks. […] The dramatic difference in tumor growth between vehicle- and TBR-760–treated mice was further confirmed by visual comparison and measurement of weights of pituitaries on death of the mice (Fig. 7B and 7C).

[12] = test system: NFPAs in heterozygous POMC KO mice; experiment: Survival analysis of tumor-bearing mice; assay type: in vivo, mouse; settings: TBR-760 1 mg/kg/day, at euthanasia; vehicle 45.76 ± 6.28
Text: In the second study, the survival of TBR-760–treated mice was examined and compared with vehicle-treated mice. After the initial 8-week treatment period was complete, vehicle-treated mice were paired with TBR-760–treated mice, and treatment continued as before. When a vehicle-treated mouse died, its TBR-760-treated mouse partner continued to receive treatment for an additional 8 weeks before being euthanized. On death or euthanasia, pituitaries were collected, weighed, and flash-frozen.
Statistical analysis was performed using PRISM8 (GraphPad 2018). An ANOVA was performed followed by post hoc analysis with Dunnett’s multiple comparisons test. Results are expressed as mean ± SEM. P less than .05 was considered statistically significant. Survival analysis was performed using PRISM8 using the Gehan-Breslow-Wilcoxon test to compare the survival curves.

[13] = test system: cultured human NFPA cells; design: method as in PMID 18509006; settings: in vitro; cited from earlier work

Compound: CC[C@@H]1NC(=O)[C@H](CCCCN)NC(=O)[C@@H](Cc2c[nH]c3ccccc23)NC(=O)[C@H](Cc2ccc(O)cc2)NC(=O)[C@@H](NC(=O)[C@H](N)Cc2ccccc2)CSSC[C@@H](C(=O)N[C@H](C(N)=O)[C@@H](C)O)NC1=O [BIM-23023, reference compound]
pituitary weight vs untreated, tumor-bearing controls ([1]; after 8 weeks of treatment): not significantly different
effect on tumor growth vs vehicle ([1]; either dose (1 or 10 mg/kg) daily sc, 8 weeks): failed to show significant effects on tumor growth
AUC(0-inf) [2]: 2860 ng·h/mL
Cmax [2]: 2300 ng/mL
Tmax [2]: 0.25 h
half-life [2]: 0.59 h
EC50 [3]: 0.14 nM
Ki [4]: > 1000 nM
Ki [5]: > 1000 nM

Ki [6]: 0.8 nM
EC50 [7]: 0.026 nM
Compound: C=CCN1C[C@H](C(=O)N(CCCN(C)C)C(=O)NCC)C[C@@H]2c3cccc4[nH]cc(c34)C[C@H]21 [Cabergoline]
patients with significant tumor shrinkage ([8]; nonintervention group 10.5%): 28.8%
patients with tumor growth ([8]; nonintervention group 15.8%): 5.1%
patients with stabilization of tumor ([8]; nonintervention group 73.7%): 66.1%

Compound: CCCN1C[C@H](CSCC(=O)NCCCC[C@@H](NC(=O)CSC[C@@H]2C[C@@H]3c4cccc5[nH]cc(c45)C[C@H]3N(CCC)C2)C(=O)N[C@H]2CSSC[C@@H](C(=O)N[C@H](C(N)=O)[C@@H](C)O)NC(=O)[C@H](CC)NC(=O)[C@H](CCCCN)NC(=O)[C@@H](Cc3c[nH]c4ccccc34)NC(=O)[C@H](Cc3ccc(O)cc3)NC2=O)C[C@@H]2c3cccc4[nH]cc(c34)C[C@H]21 [TBR-760]
Ki [6]: 12.1 nM
EC50 [7]: 0.064 nM
Ki [9]: 0.01 nM
EC50 [10]: 1.22 nM
tumor volume after 8 weeks of treatment ([11]; 0.125 mg/kg daily sc): 16.5 ± 2.6 mm^3
tumor weight after 8 weeks of treatment ([11]; 0.125 mg/kg daily sc): 5.4 ± 0.67 mg
tumor volume after 8 weeks of treatment ([11]; 1.25 mg/kg daily sc): 10.9 ± 1.1 mm^3
tumor weight after 8 weeks of treatment ([11]; 1.25 mg/kg daily sc): 5.0 ± 0.61 mg
tumor volume after 8 weeks of treatment ([11]; 12.5 mg/kg daily sc): 12.3 ± 1.0 mm^3
tumor weight after 8 weeks of treatment ([11]; 12.5 mg/kg daily sc): 4.8 ± 0.61 mg
tumor volume after 8 weeks of treatment ([1]; 1 mg/kg/day sc, 8 weeks, mean ± SEM, vehicle 54.6 ± 10.6): 8.5 ± 1.3 mm^3
proportion of treated mice with tumor shrinkage ([1]; TBR-760 1 mg/kg/day sc): 20%
mean tumor volume reduction in mice whose tumors shrank ([1]; TBR-760 1 mg/kg/day sc, 1 mg/kg/day): 44.7% and 45%
final tumor weight [12]: 5.42 ± 0.52 mg
AUC(0-inf) [2]: 1880 ng·h/mL
Cmax [2]: 354 ng/mL
Tmax [2]: 2 h
half-life [2]: 2.56 h
Ki [4]: 843 nM
Ki [5]: > 1000 nM
proportion of NFPAs examined with significant inhibition of cell proliferation [13]: approximately 60%
